From patent US20220257550A1, “REDUCING THE VIRAL ACTIVITY OF ELAFIBRANOR WITH RIBOFLAVIN OR DHA” (priority 2019, published 2022)

Tested on: Phage T4
Assay: Phage T4 titer in liquid culture of E. coli followed by plaque assay on agar plates (PFU)
Type: cell-based, bacteriophage T4 / E. coli 613
Conditions: compounds 0.02 mg/ml (each), vs untreated control, FIG. 1
Procedure: (§1) The number of phage particles (PFU) is given. Experiment were done in triplicate.
as §1
Nutritional Products Ltd (Kaiseraugst, Switzerland). All stock solutions were in 20 mg/ml DMSO. All compounds were used at a final concentration of 0.02 mg/ml.
E. coli was grown in liquid LB (lysogeny broth) medium. […] The number of phage particles (PFU) was determined by plating on agar.

SMILES	phage T4 PFU (number of phage particles) (MOI of 0.01, 3 hours at 30° C.)	phage T4 PFU (number of phage particles) (MOI of 100/1)
CSc1ccc(C(=O)/C=C/c2cc(C)c(OC(C)(C)C(=O)O)c(C)c2)cc1 [elafibranor, Elafibranor]	significantly increased	significantly increased
Cc1cc2nc3c(=O)[nH]c(=O)nc-3n(C[C@H](O)[C@H](O)[C@H](O)CO)c2cc1C [Riboflavin]	decreased	decreased
